From patent publication US20070207980A1, “Chp-gemcitabine Combination Agents And Their Use As Anti-Tumor Agents” (priority 2003, published 2007)

Key:
[1] = tested on: BxPC3; test: Cell line screening of CHP anti-proliferation activity (chemosensitivity MTT assay); format: cell-based; details: Pancreas cell lines
Description: (§1) Unless otherwise stated, cell lines from the American Type Culture Collection (ATCC, Rockville, Md.) were used and cultured to confluence in a monolayer in RPMI-1640 bicarbonate medium (Seromed, Berlin, Germany) in an incubator ([…], 37° C.). The cells were examined for mycoplasma contaminations. The medium included 10% heat-inactivated fetal calf serum (Seromed) and 4 mM glutamine. The cells were cultured and passaged according to standard procedures (0.03% trypsin with 0.02% EDTA, 3 times a week) . The cell number was determined using a TOA Sysmex micro-cell counter (TOA, Tokyo, Japan).

[2] = tested on: Fib2 (PPH); test: as above; format: cell-based; details: Fibroblasts
Description: as §1

[3] = tested on: HT29; test: as above; format: cell-based; details: Colon cell lines
Description: as §1

[4] = tested on: CR02; test: as above; format: cell-based; details: Carcinoids
Description: as §1

[5] = tested on: MDA-MBA231; test: as above; format: cell-based; details: Breast tissue
Description: as §1

[6] = tested on: Fib3 (PPH); test: as above; format: cell-based; details: Fibroblasts
Description: as §1

[7] = tested on: Calc22; test: as above; format: cell-based; details: Osteoblasts
Description: as §1

[8] = tested on: A518; test: as above; format: cell-based; details: Melanoma
Description: as §1

[9] = tested on: DLD1; test: as above; format: cell-based; details: Colon cell lines
Description: as §1

[10] = tested on: HCT-15; test: as above; format: cell-based; details: Colon cell lines
Description: as §1

[11] = tested on: ACHN; test: as above; format: cell-based; details: Renal cell lines
Description: as §1

[12] = tested on: T47D; test: as above; format: cell-based; details: Breast tissue
Description: as §1

[13] = tested on: A498; test: as above; format: cell-based; details: Renal cell lines
Description: as §1

[14] = tested on: Colo205; test: as above; format: cell-based; details: Colon cell lines
Description: as §1

[15] = tested on: PANC1; test: as above; format: cell-based; details: Pancreas cell lines
Description: as §1

[16] = tested on: MCF-7; test: as above; format: cell-based; details: Breast tissue
Description: as §1

[17] = tested on: HOS; test: as above; format: cell-based; details: Osteosarcoma tissue
Description: as §1

[18] = tested on: WI38; test: as above; format: cell-based; details: Fibroblasts
Description: as §1

[19] = tested on: B607; test: as above; format: cell-based; details: Melanoma
Description: as §1

[20] = tested on: Colo320DM; test: as above; format: cell-based; details: Colon cell lines
Description: as §1

[21] = tested on: JVSO; test: as above; format: cell-based; details: Melanoma
Description: as §1

[22] = tested on: CR01; test: as above; format: cell-based; details: Carcinoids
Description: as §1

[23] = tested on: K562; test: as above; format: cell-based; details: Leukemia cells
Description: as §1

[24] = tested on: SW480 (Ccl228); test: as above; format: cell-based; details: Colon cell lines
Description: as §1

[25] = tested on: Me128; test: as above; format: cell-based; details: Melanoma
Description: as §1

[26] = tested on: SW620(Ccl227); test: as above; format: cell-based; details: Colon cell lines
Description: as §1

[27] = tested on: MIAPaCa2; test: as above; format: cell-based; details: Pancreas cell lines
Description: as §1

[28] = tested on: PC3; test: as above; format: cell-based; details: Prostate tissue
Description: as §1

[29] = tested on: Capanl; test: as above; format: cell-based; details: Pancreas cell lines
Description: as §1

[30] = tested on: ASPC1; test: as above; format: cell-based; details: Pancreas cell lines
Description: as §1

[31] = tested on: PANC-1 cells; test: Effect of combined agents releasing gemcitabine first (Table 2); details: no gemcitabine first
Description: (§2) The chemosensitivity assay was performed in a 96-well microtiter plate with 10^4 cells per well and 100 μl of medium, and the components to be tested were supplied in a volume of 100 μl. All components were diluted on the microtiter plates, and the plates were incubated under cell culture conditions for 4 days, except for those tests wherein the ratio between application time and reaction was to be determined. The viability of the cells, including the mitochondrial activity, i.e., the ratio of cell survival rate and cell number, was determined using an MTT assay.
(§3) Combined agents of the invention sequentially releasing CHP and gemcitabine were also tested. […] Agents were used in cell cultures, which agents initially release CHP, followed by gemcitabine after 24 hours and 48 hours, respectively. […] Combined agents were used which released 1 μg/ml gemcitabine, followed by CHP after 12, 24 and 48 hours, respectively.

[32] = tested on: BxPC3; test: as above; details: no gemcitabine first
Description: as §2, §3

O=C(O)[C@@H]1C[C@@H](O)CN1 (relative stereo) [CHP, cis-hydroxyproline]
Reaction (CHP anti-proliferation activity) [1]: −41% | Reaction (CHP anti-proliferation activity) [2]: resistant | Reaction (CHP anti-proliferation activity) [3]: −48% | Reaction (CHP anti-proliferation activity) [4]: −13% | Reaction (CHP anti-proliferation activity) [5]: resistant | Reaction (CHP anti-proliferation activity) [6]: −14% | Reaction (CHP anti-proliferation activity) [7]: +8% | Reaction (CHP anti-proliferation activity) [8]: resistant | Reaction (CHP anti-proliferation activity) [9]: −19.8% | Reaction (CHP anti-proliferation activity) [10]: −10% | Reaction (CHP anti-proliferation activity) [11]: resistant | Reaction (CHP anti-proliferation activity) [12]: −34% | Reaction (CHP anti-proliferation activity) [13]: −6% | Reaction (CHP anti-proliferation activity) [14]: −66% | Reaction (CHP anti-proliferation activity) [15]: −54% | Reaction (CHP anti-proliferation activity) [16]: −43% | Reaction (CHP anti-proliferation activity) [17]: −68% | Reaction (CHP anti-proliferation activity) [18]: resistant | Reaction (CHP anti-proliferation activity) [19]: −12% | Reaction (CHP anti-proliferation activity) [20]: −11% | Reaction (CHP anti-proliferation activity) [21]: −15% | Reaction (CHP anti-proliferation activity) [22]: −35% | Reaction (CHP anti-proliferation activity) [23]: −11% | Reaction (CHP anti-proliferation activity) [24]: −58% | Reaction (CHP anti-proliferation activity) [25]: resistant | Reaction (CHP anti-proliferation activity) [26]: −66.4% | Reaction (CHP anti-proliferation activity) [27]: −45.7% | Reaction (CHP anti-proliferation activity) [28]: resistant | Reaction (CHP anti-proliferation activity) [29]: −66% | Reaction (CHP anti-proliferation activity) [30]: −42% | PANC-1 control ([31]; CHP 3 μg/ml): 98.8 ± 4.0 | PANC-1 control ([31]; CHP 6.1 μg/ml): 96.0 ± 6.0 | PANC-1 control ([31]; CHP 12.5 μg/ml): 90.8 ± 4.1 | PANC-1 control ([31]; CHP 25 μg/ml): 95.9 ± 5.1 | PANC-1 control ([31]; CHP 50 μg/ml): 94.8 ± 6.4 | PANC-1 control ([31]; CHP 100 μg/ml): 95.1 ± 2.3 | BxPC3 control ([32]; CHP 6.1 μg/ml): 103.5 ± 2.6 | BxPC3 control ([32]; CHP 12.5 μg/ml): 102.6 ± 1.7 | BxPC3 control ([32]; CHP 25 μg/ml): 99.9 ± 3.1 | BxPC3 control ([32]; CHP 50 μg/ml): 99.8 ± 4.3 | BxPC3 control ([32]; CHP 100 μg/ml): 105.2 ± 5.4
